Results taken from a melting point compilation (Tetko et al.; mined from patent text by program, amines drawn as free bases though some values may be those of a salt).

melting point [°C]	SMILES
167 to 168	O=C(CSCCOc1ccccc1)c1ccc2[nH]c3ncc(Cl)cc3c2c1
48 to 49	CCn1c(=O)n(C)c(=O)n(-c2cc(C(=O)OC)c(Cl)cc2F)c1=O
245 to 248	Cc1cc(-c2n[nH]c(-c3ccncc3)n2)ccn1
259 to 260	CC(=O)N1CCN(c2ccc(N=CNc3cc(Cl)cc(C(=Cc4ccccc4Cl)C(N)=O)c3)cc2)CC1
75 to 78	CCOC(=O)Cc1c(C(=O)OCC)[nH]c2ccccc12
64 to 65	CN(C)c1ccc(-c2cc(N(C(=O)OC(C)(C)C)C(=O)OC(C)(C)C)nn2C(=O)OC(C)(C)C)cc1
145 to 146	c1ccc(COc2ccc(Cn3cnc4c(-c5ccco5)ncnc43)cc2)cc1
236 to 238	CN(Cc1ccc(NC(=O)C2=Cc3cc(-c4cccc(C(F)(F)F)c4)ccc3S(=O)(=O)CC2)cc1)C1CCOCC1
56 to 57	COC(=O)c1cc(-n2cccc2)ccc1C
100 to 107	COCCN(C)Cc1cc(C(=O)Nc2nc3c(OC)ccc(C4COCCOC4)c3s2)ccn1
169 to 170	Cc1nc2cccc3n(CCC4CCN(S(=O)(=O)C(F)(F)F)CC4)c(=O)c1n23
226 to 228	Nc1cccc(-c2nc3sccn3c2-c2ccnc(N[C@@H]3CCCN(S(=O)(=O)c4ccc(Cl)cc4)C3)n2)c1
135 to 137	CC(=O)OCC(COC(C)=O)NC(=O)c1cc(NC(=O)CCl)cc(C(=O)NC(COC(C)=O)COC(C)=O)c1
212 to 215	O=C(O)C1CCCc2c1c1ccccc1n2Cc1ccccc1 (stereo not drawn)
144 to 146	CCON=C(CC)C1=C(O)CC(c2ccc3c(c2)NC(=O)C(C)O3)CC1=O (stereo not drawn)
112 to 113	O=C(c1cccnc1)c1ccc(Cl)c([N+](=O)[O-])c1
210	CC(=O)N1CCc2cc(S(=O)(=O)C[N+](=O)[O-])ccc21
179 to 181	CCS(=O)(=O)c1ccccc1S(N)(=O)=O
82 to 84	O=C(O)c1cc(C(F)(F)F)c(F)c(F)c1F
134	COc1ccc(Cl)c(Oc2c(C)nc(N3CCOCC3)nc2Cl)c1
134 to 136	COCc1ccoc1-c1cccc(-n2c(N)nc3ccccc32)c1
158 to 160	CSC[C@H](C)NC(=O)c1c(OC(F)(F)F)cccc1C(=O)Nc1ccc(Cn2nc(C(F)(F)F)cc2C(F)(F)F)cc1C
104 to 106	CN(C(=O)c1cccc(S(=O)(=O)N(C)c2ccc(S(C)=O)cc2)c1)c1ccc(Cl)cc1F (stereo not drawn)
193 to 195	CCOC(=O)N1CCN(c2ccc(C3=NNC(=O)CC3C)cc2N)CC1 (stereo not drawn)

melting point [°C]	SMILES
31 to 32	COCCCCCCCCCCCCCCSCCC(=O)OC
254	Cc1cc(-c2ccc(Cl)c(Cl)c2)nc(-n2cnc(-c3ccc(S(N)(=O)=O)s3)c2)n1
174 to 177	CS(=O)(=O)Nc1ccc(NC(=O)CCl)cc1
141 to 143	CCOC(=O)COc1cc2c(c(Cl)c1Cl)C(=O)C(CC)=C2
126 to 128	CC(CO)NC(=O)c1ccc(CN(C2CCCCC2F)S(=O)(=O)c2ccc(Cl)cc2)c(F)c1F (stereo not drawn)
230 to 234	CON1CCC2(CC1)NC(=O)NC2=O
221 to 225	CN1c2ccc(-c3cccc4ccccc34)cc2S(=O)c2cc(-c3cccc4ccccc34)ccc21
143 to 145	CC(=O)N(CC(=O)O)C[C@H]1O[C@H](c2ccccc2Cl)c2cc(Cl)ccc2N(Cc2ccccc2)C1=O (relative stereo)
128 to 131	NC(=O)N(O)Cc1ccco1
172	CCCCc1c[nH]c2c(Br)cccc2c1=O
93 to 94	COC(=O)c1ccoc1-c1cccc([N+](=O)[O-])c1
> 250	COC(=O)c1cc(C(=O)NN2CCOCC2)c2cc(Cc3ccc(F)cc3)cnc2c1O
163	O=C(O)COc1ccc(C(O)c2cccs2)c(Cl)c1Cl (stereo not drawn)
110 to 112	CCOP(=O)(CC(=O)O)CC(Cc1ccccc1)NS(=O)(=O)c1ccc(C)cc1 (stereo not drawn)
75 to 80	Cc1cc(Oc2ccc(Cl)c(C(F)(F)F)c2)ncc1[N+](=O)[O-]
133 to 134	Cc1c(-c2ccccc2)oc2c(C(O)CCCO)cccc2c1=O (stereo not drawn)
231 to 235	COC(=O)Nc1cn2cc(S(=O)c3ccccn3)ccc2n1 (stereo not drawn)
68	O=C(O)CCCCC=Cc1cccc(Cc2ccccc2)c1
172 to 173	COc1ccc(C(=O)n2c3c(c4cc(C)ccc42)CC(C(=O)O)CC3)cc1 (stereo not drawn)
20	FC(F)(F)c1cc2ccccc2n1Cc1ccccc1
145 to 147	CS(=O)(=O)c1ccc(-c2oc3ccccc3c(=O)c2-c2ccc(Cl)cc2)cc1
255 to 258	CCOC(=O)c1cnc2nc(C)c(OCC)cc2c1O
79 to 81	Cc1oc(-c2ccc(C(F)(F)F)cc2)nc1-c1ccc(-c2cc(Br)c(O)c(Br)c2)cc1
315 to 318	Cc1nc(-c2ccc(-c3cnc4[nH]c(=O)n(CC5CCCCC5)c4n3)cc2)n[nH]1

melting point [°C]	SMILES
208 to 215	Cc1ccc(C(O)(c2ccc(C)cc2)C2CCN(CCCC(O)c3ccc(C(C)(C)C(=O)O)cc3)CC2)cc1 (stereo not drawn)
160 to 162	CC(C)N(C)S(=O)(=O)NC(=O)c1cc(N)c(F)cc1Cl
62 to 66	CCOC(=O)C(C(=O)OCC)C(=O)C(C)Oc1cc(Cl)c(Cl)cc1Cl (stereo not drawn)
165	O=C(OC1C2CN(Cc3ccccc3)CC1CN(C(=O)c1ccc(Cl)cc1)C2)c1ccccc1 (stereo not drawn)
98	CC1(C)CCOC1(O)C(Cc1ccc(Cl)cc1)n1cncn1 (stereo not drawn)
115 to 116	Cc1ccc(C)n1C(=O)c1cc2cc(Br)ccc2o1
88 to 89	Cc1c2c(c(CCC=O)c(C(C)C)c1OCc1ccccc1)OC(C)(C)C2
89 to 90	CCc1cc(C)nc2c(C)ccc([N+](=O)[O-])c12
153	CCOC(=O)c1nnn(Cc2ccccc2)c1N
156 to 159	COC(=O)C1=C(C)NC(=O)N(C(C)=O)C1c1ccccc1 (stereo not drawn)
151 to 153	CC1CC(c2ccc(OCC(=O)O)c(Cl)c2Cl)=CC(=O)C1C (stereo not drawn)
263 to 264	CON=C1CN(c2cc3c(cc2F)c(=O)c(C(=O)O)cn3-c2ccc(F)cc2F)CC12CN(C(=O)OC(C)(C)C)C2
153 to 155	Cc1cc(Oc2c(Cl)cc(C(F)(F)F)cc2Cl)n[nH]1
122 to 123	COc1ccc(S(=O)(=O)Nc2cccnc2Nc2ccc(OS(=O)(=O)c3ccc(OC)cc3)cc2)cc1
100 to 102	CCCC(=O)c1cnc2c(OCCCN(C)Cc3ccccc3)cccc2c1Nc1ccccc1C
84 to 86	CC1(C)CN(CC2COc3ccccc3C2)c2nc(-c3ccncn3)cc(=O)n2C1 (racemic)
156 to 158	Cn1ccc(S(N)(=O)=O)n1
108 to 110	O=[N+]([O-])C(CN(Cc1ccccc1)Cc1ccccc1)=C1NCCCS1
112 to 113	COc1cc(C(C)(C)C(N)=O)cc2c1OC(C)(C)C2
92 to 93	ClCc1ccc(-c2nc3cccc(Cl)c3o2)cc1
206 to 207	Cn1c(=O)c2c(ncn2Cc2noc(O)n2)n(C)c1=O
219 to 220	CCc1nc2c(N)nc3cc(CCC(=O)N(C)C)ccc3c2n1CC1CCOCC1
55 to 56	COc1ccc(C2=NN(CCCCCCBr)C(=O)[C@H]3CC=CC[C@@H]23)cc1OC (relative stereo)
191 to 193	O=C(O)CN1C(=O)C(=CC2CCCCC2)SC1=S

melting point [°C]	SMILES
193 to 194	CCCNC(=O)Nc1cc(C(C)(C)C)c2c(c1)C(C)(C)CO2
116 to 118	COc1cc2c(cc1Cl)CCN(C)CC2c1ccc(Br)cc1 (stereo not drawn)
119 to 122	CC(=O)c1ccc(OCC(O)COc2cccc([N+](=O)[O-])c2)cc1O (stereo not drawn)
158	Cn1cc(-c2ccc(Cl)c(OC3SCC(O)C(O)C3O)c2)cn1 (stereo not drawn)
151 to 152	CC(C)(C#N)c1cc(C=Cc2ccc(OS(N)(=O)=O)cc2)cc(Cn2cncn2)c1
139 to 140	CCOC(=O)c1cn(CCc2ccccc2)c2occc2c1=O
160	Cn1c([N+](=O)[O-])cnc1CS(=O)c1ccccn1 (stereo not drawn)
196 to 200	CCCCSc1ccc2[nH]c(=O)oc(=O)c2c1
204	Cn1cncc1C(C)(c1ccc(Cl)cc1)c1ccc2c(c1)c(-c1cccc(Cl)c1)cc(=O)n2C (stereo not drawn)
232	Nc1ncc(-c2ccc(F)cc2)cc1[N+](=O)[O-]
159 to 162	CCc1cc(C(=O)c2ccccc2Cl)c(-n2c(CNC(=O)c3cc4ccccc4n3CC(=O)O)nnc2C2CCCCC2)s1
157 to 159	CCc1oc(C)cc(=O)c1O
157 to 158	O=C1N(O)CC12CCOc1cc(Cl)c(Cl)cc12 (stereo not drawn)
58 to 59	CCOC(=O)/C(=C\Nc1ccccc1OC)c1ccc(OC)cc1
152	Cc1ccc(CC2CCN(C(=O)c3cc(=O)c4cc(O)ccc4[nH]3)CC2)cc1
113 to 115	CC(C)(C)C1CCC2(CC1)CC(O)(CNC1CCCCC1)CO2 (stereo not drawn)
121 to 123	CCCC(=O)NCc1cccc2c1C(=O)N(C1CCC(=O)NC1=O)C2=O (stereo not drawn)
178 to 180	Nc1cc(Cl)nc(SC/C=C/C(=O)N2CCCC2)n1
208	CCN(CC)c1ccc(-c2cc(-c3ccc(C(=O)O)cc3)ccc2OCCCO)cc1C
165 to 167	CCOC(=O)c1cn(Cc2ccccc2OC)c2sc(-c3ccc(OC)cc3)c(C)c2c1=O
> 330	Nc1ccc(C2=NNC(=O)CC2)cc1[N+](=O)[O-]

SMILES	melting point [°C]
COc1ccc(C(O)(c2ccc(OC)cc2)C2CCNCC2)cc1	153 to 155
CCOC(=O)C1(N)N=C(c2ccccc2Cl)c2cc(CC)sc2-n2c(C)nnc21 (stereo not drawn)	180 to 181
CCOC1CCC2C3CCC4=CC(=O)CCC4=C3C(c3ccc(C=O)cc3)CC12C (stereo not drawn)	149 to 152
Fc1ccc2[nH]c(CN3C[C@@H]4C[C@H]3CN4c3ccccn3)cc2c1	211 to 214
CN(C)C1(c2ccccc2)CCC2(OCCc3c2[nH]c2ccccc32)C(CCO)C1 (stereo not drawn)	311 to 314
